Measurements: ChEMBL document CHEMBL1201862, “PubChem BioAssay data set” (2004)
Calls of active or inactive are those of the source.

Legend:
[1] = inhibition of ARNT PAS-B/TACC3 complex formation – biochemical, AlphaScreen, cherry-picked samples, confirmation (AID 651703); type: functional, Homo sapiens;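 also: His-tagged ARNT PAS-B domain paired with GST-TACC3 E629A dimer coactivator fragment; potency of inhibitors that break up the complex and lower AlphaScreen signal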
Caspase-3 = biological target: T1, Caspase-3 (Homo sapiens, UniProt P42574); type: functional;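 also: Dose-response selectivity test against caspase-3 for candidate inhibitors of sentrin-specific proteases (SENPs)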
T1 sequence (P42574 whole entry): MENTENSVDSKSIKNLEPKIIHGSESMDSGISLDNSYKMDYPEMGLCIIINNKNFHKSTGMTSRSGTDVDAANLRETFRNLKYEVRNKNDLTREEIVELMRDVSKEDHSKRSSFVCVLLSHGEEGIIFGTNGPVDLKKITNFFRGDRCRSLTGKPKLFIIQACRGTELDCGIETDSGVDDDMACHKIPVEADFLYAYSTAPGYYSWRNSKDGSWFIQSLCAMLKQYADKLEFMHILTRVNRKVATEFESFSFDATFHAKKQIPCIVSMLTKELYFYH

[2] = biological target: T2, Sentrin-specific protease 6 (Homo sapiens, UniProt Q9GZR1); type: functional;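 also: Luminescence-based dose-response confirmatory assay of SENP6 inhibition, following up an ultra-high-throughput screen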
T2 sequence (Q9GZR1 whole entry): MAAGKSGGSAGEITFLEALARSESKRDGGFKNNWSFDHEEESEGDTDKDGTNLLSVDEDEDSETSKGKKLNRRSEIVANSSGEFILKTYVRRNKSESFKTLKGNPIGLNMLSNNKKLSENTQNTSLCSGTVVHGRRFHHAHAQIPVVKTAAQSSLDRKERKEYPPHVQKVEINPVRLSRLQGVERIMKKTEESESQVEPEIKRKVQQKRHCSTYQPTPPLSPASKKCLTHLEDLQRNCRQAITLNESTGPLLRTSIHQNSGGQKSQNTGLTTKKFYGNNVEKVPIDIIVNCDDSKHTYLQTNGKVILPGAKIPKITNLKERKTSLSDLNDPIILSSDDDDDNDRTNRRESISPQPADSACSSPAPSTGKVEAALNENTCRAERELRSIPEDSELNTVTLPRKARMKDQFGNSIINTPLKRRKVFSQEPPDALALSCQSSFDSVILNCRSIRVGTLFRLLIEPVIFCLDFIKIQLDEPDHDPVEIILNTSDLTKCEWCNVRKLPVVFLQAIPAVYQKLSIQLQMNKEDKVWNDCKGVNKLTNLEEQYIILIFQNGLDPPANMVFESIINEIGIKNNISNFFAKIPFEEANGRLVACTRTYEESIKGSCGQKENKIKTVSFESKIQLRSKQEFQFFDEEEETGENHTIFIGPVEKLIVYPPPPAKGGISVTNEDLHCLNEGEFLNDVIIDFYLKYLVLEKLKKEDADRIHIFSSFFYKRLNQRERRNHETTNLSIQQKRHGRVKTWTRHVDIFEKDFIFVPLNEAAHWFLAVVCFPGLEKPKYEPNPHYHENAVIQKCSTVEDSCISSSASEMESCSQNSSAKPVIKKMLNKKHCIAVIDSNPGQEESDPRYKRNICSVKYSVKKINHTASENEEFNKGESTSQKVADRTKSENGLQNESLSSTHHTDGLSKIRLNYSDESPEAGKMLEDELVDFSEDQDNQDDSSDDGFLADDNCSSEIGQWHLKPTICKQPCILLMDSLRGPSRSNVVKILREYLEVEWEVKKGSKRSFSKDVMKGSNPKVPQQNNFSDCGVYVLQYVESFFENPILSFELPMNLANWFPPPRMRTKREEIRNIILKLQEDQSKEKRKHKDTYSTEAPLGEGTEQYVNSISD

[3] = biological target: T3, Sentrin-specific protease 7 (Homo sapiens, UniProt Q9BQF6); type: functional;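 also: Luminescence-based dose-response confirmation of ultra-high-throughput screening hits, measuring inhibition of SENP7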
T3 sequence (Q9BQF6 whole entry): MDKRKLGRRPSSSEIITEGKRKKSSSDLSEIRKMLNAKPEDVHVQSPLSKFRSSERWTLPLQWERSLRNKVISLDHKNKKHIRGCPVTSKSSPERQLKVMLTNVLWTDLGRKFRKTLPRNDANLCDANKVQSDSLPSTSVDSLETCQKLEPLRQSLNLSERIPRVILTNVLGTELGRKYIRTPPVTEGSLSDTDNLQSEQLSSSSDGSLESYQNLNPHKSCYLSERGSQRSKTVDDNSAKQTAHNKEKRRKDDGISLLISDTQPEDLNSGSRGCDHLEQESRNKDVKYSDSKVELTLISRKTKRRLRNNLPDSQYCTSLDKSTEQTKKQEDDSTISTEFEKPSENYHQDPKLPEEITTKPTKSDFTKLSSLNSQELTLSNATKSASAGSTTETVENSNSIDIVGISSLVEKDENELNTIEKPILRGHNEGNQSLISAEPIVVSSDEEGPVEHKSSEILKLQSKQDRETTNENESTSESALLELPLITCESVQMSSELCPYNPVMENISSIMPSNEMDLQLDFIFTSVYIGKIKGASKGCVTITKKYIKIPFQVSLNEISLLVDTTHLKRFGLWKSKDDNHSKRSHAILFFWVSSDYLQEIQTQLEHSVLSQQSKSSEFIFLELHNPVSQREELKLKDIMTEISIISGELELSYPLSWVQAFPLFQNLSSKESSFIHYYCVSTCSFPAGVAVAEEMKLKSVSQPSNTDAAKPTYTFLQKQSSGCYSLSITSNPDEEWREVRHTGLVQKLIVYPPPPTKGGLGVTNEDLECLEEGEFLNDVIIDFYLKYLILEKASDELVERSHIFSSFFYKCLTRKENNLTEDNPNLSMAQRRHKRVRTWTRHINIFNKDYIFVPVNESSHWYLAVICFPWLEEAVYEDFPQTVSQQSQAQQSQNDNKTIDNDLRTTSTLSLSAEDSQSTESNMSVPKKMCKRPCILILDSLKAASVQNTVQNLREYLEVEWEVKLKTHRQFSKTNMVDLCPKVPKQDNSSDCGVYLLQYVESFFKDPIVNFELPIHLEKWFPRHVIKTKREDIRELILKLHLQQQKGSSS

[4] = biological target: T4, Sentrin-specific protease 8 (Homo sapiens, UniProt Q96LD8); type: functional;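 also: luminescence read-out of SENP8 inhibition, dose-response confirmation following an ultra-high-throughput screen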
T4 sequence (Q96LD8 whole entry): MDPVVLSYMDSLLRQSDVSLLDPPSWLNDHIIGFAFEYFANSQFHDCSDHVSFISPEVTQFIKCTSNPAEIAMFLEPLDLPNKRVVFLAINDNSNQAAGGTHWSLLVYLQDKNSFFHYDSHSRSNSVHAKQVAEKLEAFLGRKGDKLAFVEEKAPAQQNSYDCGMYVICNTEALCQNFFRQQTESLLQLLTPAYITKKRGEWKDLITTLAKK

H9c2 = test: cells; type: functional, cell-based; conditions: Rattus norvegicus, H9c2, Myocardium;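 also: confirmatory concentration-response retest of ultra-high-throughput screening hits for modulation of myocardial damage; cell death induced by hydrogen peroxide oxidative stress; compound pretreatment for 60 min then peroxide exposure for 2 h; potency is for protecting the cells against peroxide damage rather than for killing them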
[5] = biological target: T5, Carboxy-terminal domain RNA polymerase II polypeptide A small phosphatase 1 (Homo sapiens, UniProt Q9GZU7); test: CTDSP1 inhibitors, concentration-response, biochemical, absorbance readout, ultra-high-throughput screen actives (AID 540297); type: functional
T5 sequence (Q9GZU7 whole entry): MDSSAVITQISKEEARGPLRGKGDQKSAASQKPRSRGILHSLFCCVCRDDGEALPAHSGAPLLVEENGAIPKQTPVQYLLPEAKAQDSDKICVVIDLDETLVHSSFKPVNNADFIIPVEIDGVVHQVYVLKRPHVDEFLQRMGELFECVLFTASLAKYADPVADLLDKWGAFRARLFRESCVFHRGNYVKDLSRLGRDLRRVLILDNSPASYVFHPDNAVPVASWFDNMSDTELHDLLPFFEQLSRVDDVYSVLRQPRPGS

[6] = biological target: DNA (cytosine-5)-methyltransferase 1 (Homo sapiens, UniProt P26358); test: inhibition of DNA methylation by DNMT1 – biochemical, fluorescent molecular beacon, confirmation (AID 602386); type: functional
DNA (cytosine-5)-methyltransferase 1, sequence (P26358 whole entry): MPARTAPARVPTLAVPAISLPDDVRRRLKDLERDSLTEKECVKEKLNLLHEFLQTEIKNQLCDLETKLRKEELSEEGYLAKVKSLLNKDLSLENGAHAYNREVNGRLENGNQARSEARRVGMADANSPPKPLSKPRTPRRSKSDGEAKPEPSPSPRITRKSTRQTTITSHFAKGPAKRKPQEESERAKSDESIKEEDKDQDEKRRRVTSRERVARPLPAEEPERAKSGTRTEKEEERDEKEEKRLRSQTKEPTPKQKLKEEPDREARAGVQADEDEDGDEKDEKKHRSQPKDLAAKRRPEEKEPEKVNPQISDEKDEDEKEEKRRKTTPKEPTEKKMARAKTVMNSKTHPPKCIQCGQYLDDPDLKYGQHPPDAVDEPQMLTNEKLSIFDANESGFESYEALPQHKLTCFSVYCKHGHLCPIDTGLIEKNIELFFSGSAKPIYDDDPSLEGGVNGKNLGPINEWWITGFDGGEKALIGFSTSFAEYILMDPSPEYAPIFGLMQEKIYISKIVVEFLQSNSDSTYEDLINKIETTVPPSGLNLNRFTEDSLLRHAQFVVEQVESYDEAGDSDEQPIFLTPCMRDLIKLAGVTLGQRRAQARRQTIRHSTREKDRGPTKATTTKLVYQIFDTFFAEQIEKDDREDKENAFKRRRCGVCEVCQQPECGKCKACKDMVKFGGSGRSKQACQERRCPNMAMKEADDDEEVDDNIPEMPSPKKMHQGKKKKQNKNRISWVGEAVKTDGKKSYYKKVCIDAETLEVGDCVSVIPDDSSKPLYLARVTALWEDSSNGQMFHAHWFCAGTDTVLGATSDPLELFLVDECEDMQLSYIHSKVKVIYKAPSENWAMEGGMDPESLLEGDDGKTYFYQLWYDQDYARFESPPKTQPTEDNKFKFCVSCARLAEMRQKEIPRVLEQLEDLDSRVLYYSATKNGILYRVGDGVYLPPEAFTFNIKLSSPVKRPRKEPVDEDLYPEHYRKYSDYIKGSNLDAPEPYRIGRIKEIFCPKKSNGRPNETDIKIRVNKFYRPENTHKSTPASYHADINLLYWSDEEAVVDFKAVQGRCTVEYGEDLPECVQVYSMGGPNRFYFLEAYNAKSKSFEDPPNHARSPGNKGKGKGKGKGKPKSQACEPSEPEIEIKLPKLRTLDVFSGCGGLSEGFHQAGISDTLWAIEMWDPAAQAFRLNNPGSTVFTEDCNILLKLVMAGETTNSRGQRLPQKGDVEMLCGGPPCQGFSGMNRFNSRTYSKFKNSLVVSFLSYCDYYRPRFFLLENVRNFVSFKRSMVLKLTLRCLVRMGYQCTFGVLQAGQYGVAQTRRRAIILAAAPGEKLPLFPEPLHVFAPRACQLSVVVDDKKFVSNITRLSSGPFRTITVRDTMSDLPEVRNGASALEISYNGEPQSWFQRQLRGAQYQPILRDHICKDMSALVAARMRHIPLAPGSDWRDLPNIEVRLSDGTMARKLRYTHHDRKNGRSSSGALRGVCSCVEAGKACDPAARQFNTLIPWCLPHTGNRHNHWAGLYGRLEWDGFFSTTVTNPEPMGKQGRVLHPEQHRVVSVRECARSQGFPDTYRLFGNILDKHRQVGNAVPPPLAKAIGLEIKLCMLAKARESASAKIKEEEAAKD

[7] = biological target: Induced myeloid leukemia cell differentiation protein Mcl-1 (Homo sapiens, UniProt Q07820); type: functional
Induced myeloid leukemia cell differentiation protein Mcl-1, sequence (Q07820 whole entry): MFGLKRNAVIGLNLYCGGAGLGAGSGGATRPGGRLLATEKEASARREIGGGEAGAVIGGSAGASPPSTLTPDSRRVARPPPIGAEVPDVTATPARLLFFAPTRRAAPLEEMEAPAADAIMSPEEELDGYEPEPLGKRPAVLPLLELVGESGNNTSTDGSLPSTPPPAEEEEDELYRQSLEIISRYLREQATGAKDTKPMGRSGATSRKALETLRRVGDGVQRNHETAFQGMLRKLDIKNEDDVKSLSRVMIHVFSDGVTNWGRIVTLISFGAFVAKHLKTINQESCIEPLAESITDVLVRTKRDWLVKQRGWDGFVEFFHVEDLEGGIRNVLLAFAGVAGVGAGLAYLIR

[8] = bead-based luminescence quenchers, dual-tagged ARNT – biochemical, AlphaScreen, cherry-pick, artefact control for ARNT-TACC3 interaction inhibitor project, dose response (AID 651705); type: functional;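 also: AlphaScreen bead proximity signal that flags compounds interfering with the detection technology; potency reflects signal decrease which marks the compound as an assay artifact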
[9] = NIH3T3 cell viability loss – ATP luminescence, mouse fibroblasts, counter-screen, dose response (AID 2010); type: functional, cell-based;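 also: cells exposed to compound for about 90 hours before reading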
[10] = Trypanosoma cruzi growth suppression in host cells – NIH3T3 host cells, beta-gal luminescence, confirmation (AID 2044); type: functional, cell-based;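 also: intracellular parasites grown in NIH/3T3 mouse fibroblasts as host cells; luminescent beta-galactosidase reporter signal from transgenic T. cruzi replicating inside host cells; inhibitors lower the luminescence signal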
[11] = Vero E6 cell cytotoxicity, dose response, cytotoxicity control for non-replicating M. tuberculosis project, secondary assay (AID 492998); type: functional, VeroE6; conditions: Vero C1008
[12] = A cytotoxicity screen of small molecule inhibitors of the PhoP region in Salmonella typhi identified in the primary screen. [Related pubchem assays: 1850, 1864, 1985 ]; type: functional
cells = type: functional
Streptococcus = test: GAS UMAA2166 growth inhibition – luminescence, BacTiterGlo, counter-screen for streptokinase expression inhibitor project, dose response (AID 1915); type: functional, organism-based;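 also: potency for reduction of bacterial viability or growth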
Streptokinase A = biological target: T6, Streptokinase A (Streptococcus pyogenes serotype M1, UniProt P10520); test: viability-normalized secreted streptokinase activity reduction – plasminogen activation absorbance, OD405, dose response (AID 1914); type: functional, Streptococcus pyogenes M1 GAS;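 also: secreted streptokinase activity via plasminogen activation per viability signal from cell pellet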
T6 sequence (P10520 whole entry): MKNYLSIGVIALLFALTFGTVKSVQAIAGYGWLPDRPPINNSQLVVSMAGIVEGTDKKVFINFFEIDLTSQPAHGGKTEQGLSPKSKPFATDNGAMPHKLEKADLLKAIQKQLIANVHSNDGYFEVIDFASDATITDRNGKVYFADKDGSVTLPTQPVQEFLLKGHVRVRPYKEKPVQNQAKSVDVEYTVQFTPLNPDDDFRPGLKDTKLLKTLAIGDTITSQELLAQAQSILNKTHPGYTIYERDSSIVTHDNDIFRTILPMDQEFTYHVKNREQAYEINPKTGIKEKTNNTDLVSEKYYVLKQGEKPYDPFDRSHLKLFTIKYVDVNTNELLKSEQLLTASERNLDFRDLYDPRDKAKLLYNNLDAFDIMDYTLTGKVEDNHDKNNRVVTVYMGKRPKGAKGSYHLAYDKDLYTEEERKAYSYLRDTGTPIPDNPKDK

[13] = test system: Streptococcus sp. 'group A'; test: Streptococcus pyogenes SK(-)GAS viability under kanamycin – luminescence, BacTiterGlo, confirmation, counter-screen for streptokinase expression inhibitor project, dose response (AID 1900); type: functional, organism-based
[14] = THP-1 cell cytotoxicity, dose response, cytotoxicity control for non-replicating M. tuberculosis project (AID 489025); type: functional
[15] = intracellular Trypanosoma cruzi inhibitors in host cells – cell-based, plate reader, cherry-pick samples, set 3, dose response (AID 651818); type: functional;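 also: compounds incubated with infected cells for about four days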

COCCn1c(N)c(C(=O)NCc2cccs2)c2nc3ccccc3nc21
AC50 [1]: 130 µM (active)

Cc1c(Cl)cnc(NC(=O)COC(=O)c2ccc([N+](=O)[O-])s2)c1Cl
IC50 (Caspase-3): 11.1 µM (active) | IC50 [2]: 5.92 µM (active) | IC50 [3]: 10.6 µM (active) | IC50 [4]: 6.85 µM (active) | IC50 (H9c2): > 79 µM (inactive)

O=C1CC(=O)NC(SCC(=O)Nc2ccccc2[N+](=O)[O-])=N1
IC50 [5]: 4.04 µM (active) | IC50 [6]: 8.51 µM (active)

O=C(O)c1cccc(-c2nnn(Cc3ccccc3Cl)n2)c1
IC50 (Caspase-3): 15.6 µM (active) | IC50 [2]: > 100 µM (inactive) | IC50 [3]: > 100 µM (inactive) | IC50 [4]: 10.9 µM (active)

O=C(COC(=O)c1ccc(NS(=O)(=O)c2cccs2)cc1)NCc1ccco1
IC50 [7]: 3.09 µM (active) | IC50 [6]: 9.6 µM (active)

O=C(CSc1ccc2nnc(-c3ccccn3)n2n1)Nc1ccccc1C(F)(F)F
AC50 [8]: 136 µM (active)

Cc1ccc(C(=O)COC(=O)c2cccc(NC(=O)c3ccc([N+](=O)[O-])cc3[N+](=O)[O-])c2)cc1
IC50 (Caspase-3): 22.2 µM (active) | IC50 [2]: 4.89 µM (active) | EC50 [9]: > 60 µM (not active) | IC50 [3]: 5.97 µM (active) | IC50 [4]: > 100 µM (inactive) | EC50 [10]: 1.11 µM (active)

O=C(Nc1nnc(-c2ccccn2)o1)c1cccc(Cl)c1
CC50 [11]: > 20 µM (active) | AC50 [8]: 89.6 µM (active) | EC50 [12]: > 50 µM (active) | IC50 (cells): 3.73 µM (active) | EC50 (Streptococcus): 16.5 µM (active) | EC50 (Streptokinase A): > 150 µM (not active) | EC50 [13]: 2.42 µM (active) | CC50 [14]: > 40 µM (active)

CCCCCCCCC(=O)c1c(OC)oc(C=O)cc1=O
IC50 [6]: 8.25 µM (active)

C[C@H]1CN([C@@H](C)CO)C(=O)c2cccc(NC(=O)Nc3cccc4ccccc34)c2O[C@H]1CN(C)S(=O)(=O)c1cccs1
AC50 [15]: 4.61 µM (active)

C[C@@H]1CN([C@@H](C)CO)C(=O)c2cccc(NC(=O)Nc3ccc4c(c3)OCO4)c2O[C@H]1CN(C)Cc1ccc(C(=O)Nc2ccccc2N)cc1
AC50 [15]: 1.04 µM (active)

C[C@H]1CN([C@@H](C)CO)C(=O)c2cccc(NC(=O)CCCCCC(=O)Nc3ccccc3N)c2O[C@@H]1CN(C)CC1CC1
AC50 [15]: 2.88 µM (active)

CCOC(=O)c1ccccc1N/C=C/C(=O)c1ccccc1
IC50 (Caspase-3): 33.1 µM (active) | IC50 [2]: 16.2 µM (active) | IC50 [3]: 9.9 µM (active) | IC50 [4]: 18.7 µM (active)
